According to US20240131007A1, “METHODS AND COMPOSITIONS FOR PICORNAVIRUS ANTI-VIRAL AGENTS” (University of Connecticut, priority 2022, published 2024):
Like-named read-outs stand apart in the source and are kept apart here.

Tests used:
in vitro = conditions: African green monkey; for CC50 at 3 days: CC50 (μM)
EV-A71 = experiment: CPE inhibition assay (Cell Titer Glo) against EV-A71 in Vero cells; type: cell-based, Enterovirus A71; conditions: for IC50: Enterovirus A, EVA71, EV-A71, Vero cells
[1] = Table 10, Scaffold 1, read-out: IC50
[2] = Table 10, Scaffold 1, CC50/IC50
[3] = Table 8, virus-induced CPE, read-out: IC50
[4] = Table 13, Scaffold 4, CC50/IC50
[5] = Table 13, Scaffold 4, read-out: IC50
[6] = Table 11, Scaffold 2, read-out: IC50
[7] = Table 11, Scaffold 2, CC50/IC50
[8] = Table 12, Scaffold 3, read-out: IC50
[9] = Table 12, Scaffold 3, CC50/IC50

| Structure (SMILES) | CC50 at 3 days (in vitro) | IC50 (EV-A71; [1]) | Selectivity Index (EV-A71; [2]) | other results |
| --- | --- | --- | --- | --- |
| O=C(Nc1ccc(-c2nc3ccccc3[nH]2)cc1)c1ccc(-c2cccc(Cl)c2)o1 [Compound 27, N-[4-(1H-benzimidazol-2-yl)phenyl]-5-(3-chlorophenyl)-2-furamide] | 67.6 µM | 5.85 µM | 11.56 |  |
| c1ccc2[nH]c(-c3ccc(-c4nc5ccccc5[nH]4)cc3)nc2c1 [Compound 65, 2,2′-(1,4-phenylene)bis-1H-benzimidazole] | 379 µM |  |  | IC50 (EV-A71; [3]): 2.17 µM; Selectivity Index (EV-A71; Table 8, CC50/IC50): 174.52; Selectivity Index (EV-A71; [4]): 174.52 |
| O=C(Nc1ccc2[nH]c(-c3ccc(Br)o3)nc2c1)c1ccccc1 [Compound T4, N-[2-(5-bromo-2-furyl)-1H-benzimidazol-5-yl]benzamide] | > 200 µM |  |  | IC50 (EV-A71; Table 6, read-out: IC50): 12.2 µM; Selectivity Index (EV-A71; Table 6, CC50/IC50): >16.33 |
| O=C(Nc1ccc(-c2nc3ccccc3[nH]2)cc1)c1ccccc1 [Compound 6, N-[4-(1H-benzimidazol-2-yl)phenyl]benzamide] | 13.7 µM | 30.8 µM | 0.45 |  |
| Cc1ccc2[nH]c(-c3ccc(NC(=O)C(F)(F)F)cc3)nc2c1 [Compound 34, 2,2,2-trifluoro-N-[4-(5-methyl-1H-benzimidazol-2-yl)phenyl]acetamide] | 618 µM | > 25 µM |  |  |
| O=C(Nc1ccc(-c2nc3ccccc3[nH]2)cc1)c1ccc(-c2ccc(Cl)cc2)o1 [Compound 26, N-[4-(1H-benzimidazol-2-yl)phenyl]-5-(4-chlorophenyl)-2-furamide] | 44.3 µM | 5.7 µM | 7.77 |  |
| Nc1ccc(-c2nc3ccc(Cl)cc3[nH]2)cc1 [Compound 61, 4-(6-chloro-1H-benzimidazol-2-yl)aniline] | 126 µM |  |  | IC50 (EV-A71; [5]): 51.3 µM; Selectivity Index (EV-A71; [4]): 2.46 |
| Cc1ccc(-c2nc3ccccc3[nH]2)cc1NC(=O)c1cc2ccccc2o1 [Compound 66, N-[5-(1H-benzimidazol-2-yl)-2-methylphenyl]-1-benzofuran-2-carboxamide] | 94.7 µM |  |  | IC50 (EV-A71; [5]): 8.52 µM; Selectivity Index (EV-A71; [4]): 11.11 |
| Cc1ccc2[nH]c(-c3ccc(NC(=O)Cc4ccccc4)cc3)nc2c1 [Compound 39, N-[4-(5-methyl-1H-benzimidazol-2-yl)phenyl]-2-phenylacetamide] | > 400 µM | > 25 µM |  |  |
| Cc1ccc2[nH]c(-c3ccc(NC(=O)C4CC4)cc3)nc2c1 [Compound 31, N-[4-(5-methyl-1H-benzimidazol-2-yl)phenyl]cyclopropanecarboxamide] | > 400 µM | 9.6 µM | >41.67 |  |
| COc1cc(C)c(S(=O)(=O)NCCc2c(C)[nH]c3ccccc23)cc1C [Compound T2, 4-methoxy-2,5-dimethyl-N-[2-(2-methyl-1H-indol-3-yl)ethyl]benzenesulfonamide] | 85.4 µM |  |  | IC50 (EV-A71; Table 6, read-out: IC50): 17 µM; Selectivity Index (EV-A71; Table 6, CC50/IC50): 5.03 |
| Cc1ccc2[nH]c(-c3ccc(N)cc3)nc2c1 [Compound 59, 4-(5-methyl-1H-benzimidazol-2-yl)aniline] | 189 µM |  |  | IC50 (EV-A71; [5]): > 25 µM |
| Cc1ccc(OCC(=O)Nc2ccc(-c3nc4cc(C)ccc4[nH]3)cc2)cc1 [Compound 41, N-[4-(5-methyl-1H-benzimidazol-2-yl)phenyl]-2-(4-methylphenoxy)acetamide] | > 400 µM | > 25 µM |  |  |
| O=C(CCc1ccccc1)Nc1ccc(-c2nc3cc4ccccc4cc3[nH]2)cc1 [Compound 49, N-[4-(1H-naphtho[2,3-d]imidazol-2-yl)phenyl]-3-phenylpropanamide] | 154 µM |  |  | IC50 (EV-A71; [6]): 22.1 µM; Selectivity Index (EV-A71; [7]): 6.99 |
| COc1ccc(CCNC(=O)C(=O)c2c(-c3ccccc3)[nH]c3ccccc23)cc1OC [Compound T6, N-[2-(3,4-dimethoxyphenyl)ethyl]-2-oxo-2-(2-phenyl-1H-indol-3-yl)acetamide] | > 200 µM |  |  | IC50 (EV-A71; Table 6, read-out: IC50): 44.2 µM; Selectivity Index (EV-A71; Table 6, CC50/IC50): >4.52 |
| O=C(c1ccccc1)c1ccc2[nH]c(-c3ccc(NC(=O)c4ccco4)cc3)nc2c1 [Compound 45, N-[4-(5-benzoyl-1H-benzimidazol-2-yl)phenyl]-2-furamide] | 59.1 µM |  | 12.56 | IC50 (EV-A71; [3]): 4.71 µM; Selectivity Index (EV-A71; Table 8, CC50/IC50): 12.56 |
| O=C(Nc1ccc(-c2nc3ccccc3[nH]2)cc1)C1CC1 [Compound 2, N-[4-(1H-benzimidazol-2-yl)phenyl]cyclopropanecarboxamide] | 148 µM | 39.3 µM | 3.77 |  |
| Cc1ccc2[nH]c(-c3ccc(NC(=O)C(C)C)cc3)nc2c1 [Compound 33, 2-methyl-N-[4-(5-methyl-1H-benzimidazol-2-yl)phenyl]propanamide] | 468 µM | 11.8 µM | 39.46 |  |
| O=C(Cc1cccc2ccccc12)Nc1ccc(-c2nc3ccccc3[nH]2)cc1 [Compound 24, N-[4-(1H-benzimidazol-2-yl)phenyl]-2-(1-naphthyl)acetamide] | 58.8 µM | 8.34 µM | 7.05 |  |

| Structure (SMILES) | CC50 at 3 days (in vitro) | IC50 (EV-A71; [1]) | Selectivity Index (EV-A71; [2]) | other results |
| --- | --- | --- | --- | --- |
| O=C(Nc1ccc(-c2nc3ccccc3[nH]2)cc1)C1CCCC1 [Compound 17, N-[4-(1H-benzimidazol-2-yl)phenyl]cyclopentanecarboxamide] | 266 µM | 13.4 µM | 19.91 |  |
| O=C(Nc1ccc(-c2nc3ccccc3[nH]2)cc1)c1ccccc1F [Compound 13, N-[4-(1H-benzimidazol-2-yl)phenyl]-2-fluorobenzamide] | 98.1 µM | > 25 µM |  |  |
| O=C(Nc1cccc(-c2nc3ccccc3[nH]2)c1)c1cc2ccccc2o1 [Compound 67, N-[3-(1H-benzimidazol-2-yl)phenyl]-1-benzofuran-2-carboxamide] | 43 µM |  |  | IC50 (EV-A71; [5]): 14.9 µM; Selectivity Index (EV-A71; [4]): 2.89 |
| O=C(Cc1ccccc1)Nc1ccc(-c2nc3ccccc3[nH]2)cc1 [Compound 7, N-[4-(1H-benzimidazol-2-yl)phenyl]-2-phenylacetamide] | > 400 µM | > 25 µM |  |  |
| O=C(Nc1ccc2[nH]c(-c3ccccc3)nc2c1)c1ccccc1 [Compound 53, N-(2-phenyl-1H-benzimidazol-5-yl)benzamide] |  |  |  | CC50 (in vitro): 125 µM; Selectivity Index (EV-A71): 9.43; IC50 (EV-A71; [8]): 13.2 µM |
| O=C(Nc1ccc(-c2nc3ccccc3[nH]2)cc1)c1ccc(Br)o1 [Compound 11, N-[4-(1H-benzimidazol-2-yl)phenyl]-5-bromo-2-furamide] | 1650 µM | 252 µM | 6.54 |  |
| Cn1cccc1-c1nc2cc(NC(=O)c3ccccc3)ccc2[nH]1 [Compound 54, N-[2-(1-methyl-1H-pyrrol-2-yl)-1H-benzimidazol-5-yl]benzamide] | 33.1 µM |  |  | IC50 (EV-A71; [8]): 47.6 µM; Selectivity Index (EV-A71; [9]): 0.69 |
| O=C(Nc1ccc(-c2nc3ccccc3[nH]2)cc1)c1ccc(F)cc1 [Compound 14, N-[4-(1H-benzimidazol-2-yl)phenyl]-4-fluorobenzamide] | 133 µM | > 25 µM |  |  |
| O=C(Nc1ccc(-c2nc3ccccc3[nH]2)cc1)c1cc([N+](=O)[O-])ccc1N1CCOCC1 [Compound 19, N-[4-(1H-benzimidazol-2-yl)phenyl]-2-(4-morpholinyl)-5-nitrobenzamide] | 2090 µM | 7.28 µM | 287.50 |  |
| O=C(Nc1ccc(-c2nc3ccccc3[nH]2)cc1)c1ccccn1 [Compound 8, N-[4-(1H-benzimidazol-2-yl)phenyl]-2-pyridinecarboxamide] | 244 µM |  | 167.19 | IC50 (EV-A71; [3]): 1.46 µM; Selectivity Index (EV-A71; Table 8, CC50/IC50): 167.19 |
| Cn1cccc1-c1nc2cc(NC(=O)c3cccs3)ccc2[nH]1 [Compound 58, N-[2-(1-methyl-1H-pyrrol-2-yl)-1H-benzimidazol-5-yl]-2-thiophenecarboxamide] | 62.8 µM |  |  | IC50 (EV-A71; [8]): 23.7 µM; Selectivity Index (EV-A71; [9]): 2.66 |
| O=C(Nc1cccc(-c2nc3ccccc3[nH]2)c1)c1ccco1 [Compound 62, N-[3-(1H-benzimidazol-2-yl)phenyl]-2-furamide] | 81.5 µM |  |  | IC50 (EV-A71; [5]): 50.2 µM; Selectivity Index (EV-A71; [4]): 1.62 |
| Cc1ccc(-c2nc3ccccc3[nH]2)cc1NC(=O)c1ccco1 [Compound 60, N-[5-(1H-benzimidazol-2-yl)-2-methylphenyl]-2-furamide] | > 400 µM |  |  | IC50 (EV-A71; [5]): > 25 µM |
| CC(=O)Nc1ccc(-c2nc3ccc(Cl)cc3[nH]2)cc1 [Compound 30, N-[4-(6-chloro-1H-benzimidazol-2-yl)phenyl]acetamide] | > 400 µM | > 25 µM |  |  |
| Cc1ccc2[nH]c(-c3ccc(NC(=O)CCC(=O)O)cc3)nc2c1 [Compound 5, 4-{[4-(5-methyl-1H-benzimidazol-2-yl)phenyl]amino}-4-oxobutanoic acid] | > 400 µM | > 25 µM |  |  |
| CCCCOc1cc(C(=O)NCCN(CC)CC)c2ccccc2n1 [Dibucaine, reference compound] |  |  |  | IC50 (EV-A71; read-out: IC50 for inhibition of virus-induced CPE): 4.5 µM |
| O=C(Nc1cccc(-c2nc3cc4ccccc4cc3[nH]2)c1)c1ccco1 [Compound 50, N-[3-(1H-naphtho[2,3-d]imidazol-2-yl)phenyl]-2-furamide] | 562 µM |  |  | IC50 (EV-A71; [6]): > 25 µM |
| CC(=O)Nc1ccc(-c2nc3cc4ccccc4cc3[nH]2)cc1 [Compound 47, N-[4-(1H-naphtho[2,3-d]imidazol-2-yl)phenyl]acetamide] | 477 µM |  |  | IC50 (EV-A71; [3]): 4.22 µM; Selectivity Index (EV-A71; Table 8, CC50/IC50): 113.08; Selectivity Index (EV-A71; [7]): 113.08 |
